Data from publication PMC7105723, “A Ganoderma-Derived Compound Exerts Inhibitory Effect Through Formyl Peptide Receptor 2” (Frontiers in Pharmacology, 2020).

Biological target: T1, formyl peptide receptor 2 (FPR2) (Homo sapiens, UniProt P25090)
T1 construct: human FPR2 stably expressed in RBL-2H3 cells; FPR2-ICL3-FlAsH/C-terminal ECFP in HEK-293 cells for FRET
T1 sequence (P25090 1-351): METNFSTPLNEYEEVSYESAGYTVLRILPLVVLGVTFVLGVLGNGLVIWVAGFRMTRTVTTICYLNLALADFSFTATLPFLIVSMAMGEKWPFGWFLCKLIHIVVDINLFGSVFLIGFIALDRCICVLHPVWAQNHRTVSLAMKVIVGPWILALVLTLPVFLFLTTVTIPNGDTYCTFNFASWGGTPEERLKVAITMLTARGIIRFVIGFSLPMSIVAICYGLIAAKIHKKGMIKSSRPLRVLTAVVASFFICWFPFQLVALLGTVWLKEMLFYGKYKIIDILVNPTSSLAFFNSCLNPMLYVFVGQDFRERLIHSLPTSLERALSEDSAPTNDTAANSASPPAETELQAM
Test: competition with WK(FITC)YMVm on RBL-FPR2 cells by flow cytometry (partial); FlAsH FRET conformational change
Format: cell-based

For CC(C)=CCC/C(C)=C/CC/C(=C/Cc1cc(O)ccc1O)CO [C18, ganomycin F], which IC50 is on record?
The IC50 was 3.2 µM.
